We go through four compounds from US20050019825A9, “Common ligand mimics: pseudothiohydantoins” (priority 2002, published 2005).

As a reminder, the pIC50 is −log10 of the IC50, conventionally taken in molar units. As a reminder, the inhibition is the drop in the measured response relative to a control, in per cent.

pIC50: −log10 of the molar value. A value given as a limit tells only on which side of the number the result lay.

In test [1] the target is T1, HMG CoA reductase (HMGCoAR) (UniProt P04035).
T1 sequence (P04035 1-888): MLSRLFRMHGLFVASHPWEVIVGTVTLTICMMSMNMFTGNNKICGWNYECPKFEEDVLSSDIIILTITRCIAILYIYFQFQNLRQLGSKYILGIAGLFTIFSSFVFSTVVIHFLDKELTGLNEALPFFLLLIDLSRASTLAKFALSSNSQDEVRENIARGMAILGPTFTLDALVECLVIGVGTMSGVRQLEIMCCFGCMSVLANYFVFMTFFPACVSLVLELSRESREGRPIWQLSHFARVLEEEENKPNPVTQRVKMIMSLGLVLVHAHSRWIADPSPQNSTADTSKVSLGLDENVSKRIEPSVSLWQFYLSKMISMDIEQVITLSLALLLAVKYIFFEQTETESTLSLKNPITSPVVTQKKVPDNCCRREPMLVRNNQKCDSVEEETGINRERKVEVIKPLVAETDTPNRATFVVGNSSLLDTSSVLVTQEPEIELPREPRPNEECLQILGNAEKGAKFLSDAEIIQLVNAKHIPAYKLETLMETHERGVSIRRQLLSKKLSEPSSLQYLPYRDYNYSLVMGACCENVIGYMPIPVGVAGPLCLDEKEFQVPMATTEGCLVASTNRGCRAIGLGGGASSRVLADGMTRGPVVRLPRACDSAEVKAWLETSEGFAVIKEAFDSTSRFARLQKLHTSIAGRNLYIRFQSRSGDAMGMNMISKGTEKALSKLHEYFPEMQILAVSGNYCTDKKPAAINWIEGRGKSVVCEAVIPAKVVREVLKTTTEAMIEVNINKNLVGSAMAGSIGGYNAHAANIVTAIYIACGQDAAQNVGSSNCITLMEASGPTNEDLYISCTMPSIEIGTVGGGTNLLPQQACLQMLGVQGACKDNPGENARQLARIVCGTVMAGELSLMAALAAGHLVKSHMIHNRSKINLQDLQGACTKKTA
The test is described as follows: HMGCoAR kinetic assay, spectrophotometric oxidation of NADPH (340 nm). Conditions: for pIC50: common ligand mimics, Examples 23/24. It is filed as biochemical. The protocol:
For HMGCoAR analysis, the compounds were screened using a kinetic protocol that spectrophotometrically evaluates oxidation of NADPH.
Stock solutions of each of the reagents were prepared in the following concentrations. Dilutions of the stock solutions were prepared prior to running the assay in the concentrations indicated below. The enzyme was diluted in 1 M NaCl. To prepare the dilution buffer, 10 μl of HMGCoAR (1 mg/ml) was mixed with 133 μl of 3 M NaCl solution and 257 μl of 25 mM KH2PO4 buffer (pH 7.5; containing 50 mM NaCl, […] EDTA (ethylenediaminetetraacetic acid), and 5 mM DTT (dithiothreitol).
The HMGCoAR reaction was monitored at 340 nm prior to and after addition of the inhibitor to detect background reaction with the inhibitor. Solutions of 100 μM of the inhibitors in DMSO were prepared to provide a final DMSO concentration of 2% of the total assay volume. These solutions were incubated for 6 minutes at 25° C. in a 994 μl of a solution containing 25 mM KH2PO4, pH 7.5, 160 μM HMGCoA, 13 μM NADPH, 50 mM NaCl, 1 mM EDTA, and 5 mM DTT. The reaction was then initiated with 5 μl of HMGCoAR enzyme (1:40 dilution of 0.65 mg/ml). After the enzyme was added, the solution was mixed for 20 seconds, and the reaction was run for 10 minutes. After a 50 second lag, the samples were read in a Cary spectrophotometer at 340 nm. Reading of the samples was continued until 300 seconds. Cuvette #1 contained the control reaction (no inhibitor), and cuvette #2 contained the positive control reaction in which Cibacron Blue at 2.05 μM was substituted for inhibitor to yield 50 to 70% inhibition. The substrate was kept at a level at least 10 times the Km.

The target in test [2] is dihydrodipicolinate reductase (DHPR) (Escherichia coli, UniProt P04036). Briefly: Screening of bi-ligands for DHPR (Example 25), kinetic assay at 340 nm. It is filed as biochemical. Conditions: Cibacron Blue at 2.58 μM, Example 25; read-out: inhibition of DHPR, positive control. The procedure:
Screening of Biligands for Binding to Dihydrodipicolinate Reductase (DHPR)
This example describes the screening of bi-ligands having common ligand mimics for binding activity to dihydrodipicolinate reductase (DHPR).
Bi-ligands were produced by the methods of Examples 16 to 18. The bi-ligands were screened for binding to DHPR.
Stock solutions of each of the reagents were prepared in the following concentrations. Dilutions of the stock solutions were prepared prior to running the assay in the concentrations indicated below. Dilution of DHPR was prepared in 10 mM HEPES at a pH of 7.4. DHPS was not diluted and was stored in eppindorf tubes.
The L-ASA solution was prepared in the following manner. 180 μM stock solution of ASA was prepared. 100 μl of the ASA stock was mixed with 150 μl of concentrated NaHCO3 and 375 μl of […]. For use in the assay, 28.8 mM L-ASA equal 625 μl of the solution. The L-ASA stock solution was kept at a temperature of −20° C. After dilution, the pH of the 28.8 mM solution was checked and maintained between 1 and 2.
First, the DHPS reaction was monitored at 340 nm prior to and after addition of the inhibitor to detect background reaction with the inhibitor. The solution for background detection was a 945 μl solution containing 0.1 HEPES (pH 7.8), 1 mM pyruvate, 6 μM NADPH, 40 μM L-ASA, and 7 μl of 1 mg/ml DHPS at 25° C. in the volumes provided above. The sample solution was then mixed and incubated for 10 minutes. Next, 500 nM solutions of the inhibitors and enough DMSO to provide a final DMSO concentration of 5% were added. The solution was mixed and incubated for an additional 6 minutes.
In DHPR samples, 5 μl of the diluted DHPR enzyme were added. The sample was mixed for 20 seconds and then the reaction was run for 10 minutes. After a 50 second lag, the samples were read in a Cary spectrophotometer at 340 nm. Reading of the samples was continued until 300 seconds. Cuvette #1 contained the control reaction (no inhibitor), and cuvette #2 contained the positive control reaction in which Cibacron Blue at 2.58 μM was substituted for inhibitor to yield 70 to 80% inhibition. The substrate and NADPH or NAHD were kept near their Km values.

dihydrodipicolinate reductase (DHPR), sequence (P04036 whole entry): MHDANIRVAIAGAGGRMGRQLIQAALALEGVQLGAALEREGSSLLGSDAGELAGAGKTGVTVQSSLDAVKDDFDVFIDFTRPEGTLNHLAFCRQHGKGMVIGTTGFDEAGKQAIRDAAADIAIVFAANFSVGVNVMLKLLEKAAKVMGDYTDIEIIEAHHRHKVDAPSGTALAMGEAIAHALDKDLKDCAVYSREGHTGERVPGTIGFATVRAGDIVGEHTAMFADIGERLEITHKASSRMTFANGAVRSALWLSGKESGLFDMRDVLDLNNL

In the case of `N=C1NC(=O)C(=Cc2ccc(O)c([N+](=O)[O-])c2)S1` [5-(4-hydroxy-3-nitro-benzylidene)-2-imino-thiazolidin-4-one], the pIC50 in test [1] is under 4.05. On the same count and under the same terms, to `COc1cc(C=C2SC(N)=NC2=O)ccc1O` [5-(4-hydroxy-3-methoxy-benzylidene)-2-imino-thiazolidin-4-one] belongs under 4.00. Consider `COc1cc(O)ccc1C=C1SC(=N)NC1=O` [5-(4-hydroxy-2-methoxy-benzylidene)-2-imino-thiazolidin-4-one], for which, in test [1] (Example 24 (FIG. 6)), the “inhibition of HMGCoAR (in words)” value was “no inhibition”. `Nc1c(S(=O)(=O)O)cc(Nc2ccc(Nc3nc(Cl)nc(Nc4ccccc4S(=O)(=O)O)n3)c(S(=O)(=O)O)c2)c2c1C(=O)c1ccccc1C2=O` [Cibacron Blue, reference compound]: in test [2], the inhibition at 2.58 µM was 70 to 80%.
